Eleven molecules from patent US20200069648A1, “HALOALLYLAMINE PYRAZOLE DERIVATIVE INHIBITORS OF LYSYL OXIDASES AND USES THEREOF” (Pharmaxis Ltd., priority 2017, published 2020) can be followed below.

Structures can show the parent of a compound that is named as a salt. Where only a bound is given, the exact number is not on record here.

Test [1] addresses T1, Bovine LOX (Bos taurus, UniProt P33072).
T1 sequence (P33072 170-418): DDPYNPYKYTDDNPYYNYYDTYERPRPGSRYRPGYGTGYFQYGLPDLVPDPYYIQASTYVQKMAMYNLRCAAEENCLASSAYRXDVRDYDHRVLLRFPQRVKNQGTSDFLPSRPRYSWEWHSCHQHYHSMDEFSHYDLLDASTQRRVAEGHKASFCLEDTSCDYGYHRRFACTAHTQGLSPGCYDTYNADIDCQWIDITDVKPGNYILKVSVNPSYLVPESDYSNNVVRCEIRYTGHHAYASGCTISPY
Nature of the test: LOX amine oxidase inhibition, peroxidase-coupled Amplex Red assay. Format: biochemical. Conditions: 30 min preincubation at 37° C., putrescine substrate. The essentials: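 Bovine LOX in 1.2 M urea, 50 mM sodium borate pH 8.2 […]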

Test [2] deals with T2, Human LOXL2 (Homo sapiens, UniProt Q9Y4K0).
T2 sequence (Q9Y4K0 26-774): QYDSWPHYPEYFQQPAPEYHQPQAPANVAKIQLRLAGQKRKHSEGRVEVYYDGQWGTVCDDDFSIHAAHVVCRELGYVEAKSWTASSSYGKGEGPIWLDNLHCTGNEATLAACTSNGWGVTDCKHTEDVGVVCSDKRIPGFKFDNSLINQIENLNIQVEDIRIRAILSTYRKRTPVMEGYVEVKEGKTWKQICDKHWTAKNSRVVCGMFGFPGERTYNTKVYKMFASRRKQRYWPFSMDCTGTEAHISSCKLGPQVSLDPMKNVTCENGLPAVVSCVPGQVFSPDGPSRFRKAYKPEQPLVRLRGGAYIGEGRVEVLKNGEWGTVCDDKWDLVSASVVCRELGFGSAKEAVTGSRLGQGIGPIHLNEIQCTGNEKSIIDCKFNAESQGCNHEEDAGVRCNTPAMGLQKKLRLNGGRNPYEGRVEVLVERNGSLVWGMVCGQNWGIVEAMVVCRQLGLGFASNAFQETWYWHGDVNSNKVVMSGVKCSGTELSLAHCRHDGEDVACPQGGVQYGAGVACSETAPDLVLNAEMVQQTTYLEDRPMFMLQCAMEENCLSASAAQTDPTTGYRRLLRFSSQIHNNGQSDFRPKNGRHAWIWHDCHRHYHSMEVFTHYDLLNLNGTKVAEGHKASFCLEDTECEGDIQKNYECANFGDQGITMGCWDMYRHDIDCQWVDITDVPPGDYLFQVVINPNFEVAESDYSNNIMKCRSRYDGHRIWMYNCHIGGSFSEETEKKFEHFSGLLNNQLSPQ
Nature of the test: LOXL2 amine oxidase inhibition, peroxidase-coupled Amplex Red assay. The class given is biochemical. Conditions: 30 min preincubation at 37° C., putrescine substrate. The essentials:
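Enzyme preincubated 30 min at 37 °C with compound (11-point curve) in 1.2 M urea, 50 mM borate pH 8.2 plus 1 μM mofegiline and 0.5 mM pargyline; putrescine at twice KM (10 mM for LOXL2), Amplex Red and HRP added. Fluorescence (565/590 nm) read every 2.5 min for 30 min; IC50 from kinetic slopes.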

As to `Cc1nn(Cc2ccc(S(C)(=O)=O)cc2Cl)c(C)c1C/C(F)=C/CN` [Compound 21, (Z)-4-(1-(2-chloro-4-(methylsulfonyl)benzyl)-3,5-dimethyl-1H-pyrazol-4-yl)-3-fluorobut-2-en-1-amine hydrochloride], the IC50 in test [1] is < 10 µM; in test [2] it was < 1 µM.

In the case of `CNS(=O)(=O)c1ccc(Cn2nc(C)c(C/C(F)=C/CN)c2C)cc1Cl` [Compound 22, (Z)-4-((4-(4-amino-2-fluorobut-2-en-1-yl)-3,5-dimethyl-1H-pyrazol-1-yl)methyl)-2-chloro-N-methylbenzenesulfonamide hydrochloride], the IC50 in test [1] was < 10 µM; in test [2], < 1 µM.

In the case of `CNS(=O)(=O)c1ccc(Cn2nc(C)c(C/C(F)=C/CN)c2C)c(C(F)(F)F)c1` [Compound 23, (Z)-4-((4-(4-amino-2-fluorobut-2-en-1-yl)-3,5-dimethyl-1H-pyrazol-1-yl)methyl)-N-methyl-3-(trifluoromethyl)benzenesulfonamide hydrochloride], the IC50 in test [1] was < 10 µM; in test [2], < 1 µM.

For `Cc1nn(Cc2ccc(S(C)(=O)=O)c(Cl)c2)c(C)c1C/C(F)=C/CN` [Compound 24, (Z)-4-(1-(3-chloro-4-(methylsulfonyl)benzyl)-3,5-dimethyl-1H-pyrazol-4-yl)-3-fluorobut-2-en-1-amine hydrochloride], the IC50 in test [1] was < 10 µM; in test [2], < 1 µM.

Consider `Cc1nn(Cc2cc(F)c(S(=O)(=O)N(C)C)cc2F)c(C)c1C/C(F)=C/CN` [Compound 25, (Z)-4-((4-(4-amino-2-fluorobut-2-en-1-yl)-3,5-dimethyl-1H-pyrazol-1-yl)methyl)-2,5-difluoro-N,N-dimethylbenzenesulfonamide hydrochloride], for which the IC50 in test [1] was < 10 µM; in test [2] it was < 1 µM.

On to `CNS(=O)(=O)c1cc(F)c(Cn2nc(C)c(C/C(F)=C/CN)c2C)cc1F` [Compound 26, (Z)-4-((4-(4-amino-2-fluorobut-2-en-1-yl)-3,5-dimethyl-1H-pyrazol-1-yl)methyl)-2,5-difluoro-N-methylbenzenesulfonamide hydrochloride], for which the IC50 in test [1] is < 10 µM; in test [2], < 1 µM.

For the molecule `CCOC(=O)c1c(Cc2ccc(S(=O)(=O)N(C)C)cc2)c(C)nn1C/C(F)=C/CN` [Compound 27, (Z)-ethyl 1-(4-amino-2-fluorobut-2-enyl)-4-(4-(N,N-dimethylsulfamoyl)benzyl)-3-methyl-1H-pyrazole-5-carboxylate hydrochloride], the IC50 in test [1] is < 10 µM; in test [2], < 1 µM.

With `CCOC(=O)c1nn(C/C(F)=C/CN)c(C)c1Cc1ccc(S(=O)(=O)N(C)C)cc1` [Compound 28, (Z)-ethyl 1-(4-amino-2-fluorobut-2-enyl)-4-(4-(N,N-dimethylsulfamoyl)benzyl)-5-methyl-1H-pyrazole-3-carboxylate hydrochloride], the results for the IC50 in test [1] and in test [2] were < 10 µM and < 1 µM, respectively.

On to `Cc1nn(C/C(F)=C/CN)c(C(=O)N(C)C)c1Cc1ccc(S(=O)(=O)N(C)C)cc1` [Compound 29, (Z)-1-(4-amino-2-fluorobut-2-enyl)-4-(4-(N,N-dimethylsulfamoyl)benzyl)-N,N,3-trimethyl-1H-pyrazole-5-carboxamide hydrochloride], for which the IC50 was < 10 µM in test [1] and < 1 µM in test [2].

In the case of `Cc1nn(C/C(F)=C/CN)c(C(=O)O)c1Cc1ccc(S(=O)(=O)N(C)C)cc1` [Compound 30, (Z)-1-(4-amino-2-fluorobut-2-enyl)-4-(4-(N,N-dimethylsulfamoyl)benzyl)-3-methyl-1H-pyrazole-5-carboxylic acid hydrochloride], the IC50 in test [1] was > 10 µM; in test [2], < 1 µM.

`Cc1c(Cc2ccc(S(=O)(=O)N(C)C)cc2)c(C(=O)O)nn1C/C(F)=C/CN` [Compound 31, (Z)-1-(4-amino-2-fluorobut-2-enyl)-4-(4-(N,N-dimethylsulfamoyl)benzyl)-5-methyl-1H-pyrazole-3-carboxylic acid hydrochloride]: the IC50 in test [1] is > 10 µM; in test [2], < 1 µM.

As usually defined, the IC50 is the midpoint of a concentration-inhibition curve. Higher therefore signals weaker potency.
